Results: patent US11840686B2, “Modulation of prekallikrein (PKK) expression” (Ionis Pharmaceuticals, Inc., priority 2013, dated 2023)
Strand notation (5' to 3'): a small letter for the sugar, then the base; units joined by * are phosphorothioate-linked, units joined directly phosphodiester-linked; [ ] holds rarer units or linkages, { } end groups; capitals alone tell only the bases. e = 2'-O-(2-methoxyethyl) (MOE); [5mC] = 5-methylcytosine; d = 2'-deoxy (DNA)

How the values were obtained:
human PKK mRNA [1] = test: Dose-dependent antisense inhibition of human PKK in HepaRG cells, 0.19-5.00 uM (Example 5); assay type: cell-based; conditions: HepaRG cells; for percent inhibition of PKK at 0.19 μM / percent inhibition of PKK at 0.56 μM / percent inhibition of PKK at 1.67 μM / percent inhibition of PKK at 5.00 μM: electroporation, approximately 16 hours; for percent inhibition of PKK mRNA, 0.19 μM: 0.19 μM antisense oligonucleotide; for percent inhibition of PKK mRNA, 0.56 μM: 0.56 μM antisense oligonucleotide; for percent inhibition of PKK mRNA, 1.67 μM: 1.67 μM antisense oligonucleotide; for percent inhibition of PKK mRNA, 5.00 μM: 5.00 μM antisense oligonucleotide
How it was run: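 PKK mRNA knockdown was measured by real-time PCR (primer probe set RTS3454) about 16 h after electroporating 20,000 HepaRG cells per well with oligonucleotide at four doses from 0.19 to 5.00 μM. Levels were adjusted to RIBOGREEN-measured total RNA, and IC50 values were calculated.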

human PKK mRNA [2] = test: Antisense inhibition of human PKK mRNA in HepaRG cells, 5,000 nM (Example 2); assay type: cell-based
How it was run: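 Chimeric MOE gapmers with full phosphorothioate backbones were tested once at 5,000 nM in electroporated HepaRG cells. After about 24 hours, quantitative PCR measured PKK mRNA relative to untreated control cells.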

[3] = 4 point dose response, Table 35
[4] = 4 point dose response, Table 40
[5] = 4 point dose response, Table 37
[6] = human PKK mRNA, HepaRG cells, 5-10-5 motif oligonucleotides targeting SEQ ID NO: 1 and 10
[7] = 4 point dose response, Table 38

| Substance | percent inhibition of PKK mRNA, 0.19 μM (human PKK mRNA [1]) [%] | percent inhibition of PKK mRNA, 0.56 μM (human PKK mRNA [1]) [%] | percent inhibition of PKK mRNA, 1.67 μM (human PKK mRNA [1]) [%] | IC50 (human PKK mRNA [1]; 0.19-5.00 μM) [nM] | percent inhibition of PKK at 0.19 μM (human PKK mRNA [1]; Table 40) [%] | percent inhibition of PKK at 0.56 μM (human PKK mRNA [1]; Table 40) [%] | percent inhibition of PKK at 1.67 μM (human PKK mRNA [1]; Table 40) [%] | percent inhibition of PKK at 5.00 μM (human PKK mRNA [1]; Table 40) [%] | IC50 (human PKK mRNA [1]; [4]) [nM] | percent inhibition of PKK at 0.19 μM (human PKK mRNA [1]; Table 38) [%] | percent inhibition of PKK at 0.56 μM (human PKK mRNA [1]; Table 38) [%] | percent inhibition of PKK at 1.67 μM (human PKK mRNA [1]; Table 38) [%] | percent inhibition of PKK at 5.00 μM (human PKK mRNA [1]; Table 38) [%] | IC50 (human PKK mRNA [1]; [7]) [nM] | further results |
| --- | --- | --- | --- | --- | --- | --- | --- | --- | --- | --- | --- | --- | --- | --- | --- |
| 546255 (e[5mC]*eT*eT*eT*eG*dT*dG*d[5mC]*dA*dA*dG*dT*d[5mC]*dT*d[5mC]*eT*eT*eG*eG*e[5mC]; antisense) [compound 546255] | 5 | 39 | 82 | 800 | – | – | – | – | – | – | – | – | – | – | percent inhibition of PKK at 0.19 μM (human PKK mRNA [1]; Table 35): 32%; percent inhibition of PKK at 0.56 μM (human PKK mRNA [1]; Table 35): 35%; percent inhibition of PKK at 1.67 μM (human PKK mRNA [1]; Table 35): 78%; percent inhibition of PKK at 5.00 μM (human PKK mRNA [1]; Table 35): 87%; IC50 (human PKK mRNA [1]; [3]): 500 nM; percent inhibition of PKK mRNA, 5.00 μM (human PKK mRNA [1]): 96%; % inhibition (human PKK mRNA [2]; Table 8, HepaRG cells, electroporation with 5,000 nM antisense oligonucleotide, approx. 24 hours, PKK mRNA by RT-PCR (RTS3454), relative to untreated control cells): 92% |
| 547453 (antisense eT*e[5mC]*eA*eT*eG*dA*dT*dT*d[5mC]*d[5mC]*d[5mC]*dT*dT*d[5mC]*dT*eG*eA*eG*eA*e[5mC]) [compound 547453] | – | – | – | – | – | – | – | – | – | – | – | – | – | – | percent inhibition of PKK at 0.19 μM (human PKK mRNA [1]; Table 39): 25%; percent inhibition of PKK at 0.56 μM (human PKK mRNA [1]; Table 39): 40%; percent inhibition of PKK at 1.67 μM (human PKK mRNA [1]; Table 39): 54%; percent inhibition of PKK at 5.00 μM (human PKK mRNA [1]; Table 39): 92%; IC50 (human PKK mRNA [1]; 4 point dose response, Table 39): 800 nM; % inhibition (human PKK mRNA [2]; Table 9 experiment, HepaRG cells, 20,000 cells per well, electroporation with 5,000 nM antisense oligonucleotide, approx. 24 hours, PKK mRNA by RT-PCR (RTS3454), relative to untreated control cells): 81%; % inhibition (human PKK mRNA [2]; Table 10 experiment, HepaRG cells, 20,000 cells per well, electroporation with 5,000 nM antisense oligonucleotide, approx. 24 hours, PKK mRNA by RT-PCR (RTS3454), relative to untreated control cells): 81% |
| 547722 (e[5mC]*eT*e[5mC]*e[5mC]*eA*dG*dT*d[5mC]*dA*d[5mC]*d[5mC]*dA*d[5mC]*d[5mC]*dA*eT*eT*eG*e[5mC]*e[5mC]; antisense) [compound 547722] | – | – | – | – | 0 | 15 | 32 | 73 | 2400 | – | – | – | – | – | % inhibition (human PKK mRNA [2]; HepaRG cells, 5,000 nM antisense oligonucleotide, 5-10-5 gapmers, Table 16): 80% |
| 547637 (eA*eG*eT*eA*eT*d[5mC]*dA*d[5mC]*dT*dG*dT*dA*d[5mC]*dT*dA*eG*eT*eT*eT*eT; antisense) [compound 547637] | – | – | – | – | – | – | – | – | – | – | – | – | – | – | percent inhibition of PKK at 0.19 μM (human PKK mRNA [1]; Table 37): 10%; percent inhibition of PKK at 0.56 μM (human PKK mRNA [1]; Table 37): 21%; percent inhibition of PKK at 1.67 μM (human PKK mRNA [1]; Table 37): 36%; percent inhibition of PKK at 5.00 μM (human PKK mRNA [1]; Table 37): 82%; IC50 (human PKK mRNA [1]; [5]): 1800 nM; % inhibition (human PKK mRNA [2]; [6]): 88% |
| 547009 (eA*eA*eT*eT*eG*dG*dT*dG*dG*dT*dG*dG*dG*dA*dT*eT*eG*eG*eT*eG; antisense) [compound 547009] | – | – | – | – | 0 | 9 | 21 | 63 | 3600 | – | – | – | – | – | % inhibition (human PKK mRNA [2]; HepaRG cells, 5,000 nM antisense oligonucleotide, 5-10-5 gapmers, Table 17): 73% |
| 547647 (eG*eT*e[5mC]*e[5mC]*eT*dA*dT*dA*dT*d[5mC]*dA*d[5mC]*dT*dG*dT*eA*e[5mC]*e[5mC]*eT*eA; antisense) [compound 547647] | – | – | – | – | – | – | – | – | – | – | – | – | – | – | percent inhibition of PKK at 0.19 μM (human PKK mRNA [1]; Table 35): 1%; percent inhibition of PKK at 0.56 μM (human PKK mRNA [1]; Table 35): 70%; percent inhibition of PKK at 1.67 μM (human PKK mRNA [1]; Table 35): 72%; IC50 (human PKK mRNA [1]; [3]): 800 nM; % inhibition (human PKK mRNA [2]; [6]): 92% |
| 546198 (antisense eT*e[5mC]*eT*eT*e[5mC]*dA*dA*d[5mC]*dA*d[5mC]*dT*dG*d[5mC]*dT*dA*eA*e[5mC]*e[5mC]*eT*eT) [compound 546198] | – | – | – | – | – | – | – | – | – | 7 | 3 | 45 | 92 | 1300 | % inhibition (human PKK mRNA [2]; HepaRG cells, electroporation with 5,000 nM antisense oligonucleotide, approximately 24 hours, PKK mRNA by RT-PCR (RTS3454), relative to untreated control cells, Table 6 experiment): 85% |
| 548743 (DNA e[5mC]*eA*e[5mC]*eT*dG*dT*dA*d[5mC]*dT*dA*dG*dT*dT*eT*e[5mC]*e[5mC]*eT; antisense) [compound 548743] | 22 | 47 | 74 | 600 | 25 | 57 | 73 | 88 | 500 | – | – | – | – | – | percent inhibition of PKK mRNA, 5.00 μM (human PKK mRNA [1]): 96%; % inhibition (human PKK mRNA [2]; human PKK mRNA, HepaRG cells, 5,000 nM antisense oligonucleotide, Table 18): 80% |
| 546412 (eG*eG*e[5mC]*eT*eT*d[5mC]*dA*dA*dT*dA*dT*dT*dG*dA*d[5mC]*eT*eT*eT*eG*eG; antisense) [compound 546412] | – | – | – | – | – | – | – | – | – | 0 | 1 | 61 | 62 | 2300 | % inhibition (human PKK mRNA [2]; HepaRG cells, electroporation, 5,000 nM antisense oligonucleotide, approx. 24 hours, primer probe set RTS3454, relative to untreated control cells, Table 12): 84% |
| 547514 (antisense eA*eG*eA*eT*eG*d[5mC]*d[5mC]*dA*d[5mC]*dT*d[5mC]*dT*d[5mC]*d[5mC]*dA*eT*eG*e[5mC]*eT*eT) [compound 547514] | – | – | – | – | – | – | – | – | – | 18 | 8 | 51 | 80 | 1900 | % inhibition (human PKK mRNA [2]; HepaRG cells, electroporation, 5,000 nM antisense oligonucleotide, approx. 24 hours, primer probe set RTS3454, relative to untreated control cells, Table 11): 85% |
| 547615 (antisense eT*e[5mC]*e[5mC]*eT*eA*dT*dA*dT*d[5mC]*dA*d[5mC]*dT*dG*dT*dA*e[5mC]*e[5mC]*eT*eG*eT) [compound 547615] | – | – | – | – | – | – | – | – | – | 20 | 26 | 41 | 84 | 1400 | % inhibition (human PKK mRNA [2]; human PKK mRNA in HepaRG cells, 5-10-5 gapmers, Table 14): 84% |
| 546847 (eA*e[5mC]*eT*eG*eT*d[5mC]*d[5mC]*dT*dA*dT*dA*dT*d[5mC]*dA*d[5mC]*eT*eG*eT*e[5mC]*e[5mC]; antisense) [compound 546847] | 14 | 44 | 83 | 700 | – | – | – | – | – | – | – | – | – | – | percent inhibition of PKK at 0.19 μM (human PKK mRNA [1]; Table 37): 39%; percent inhibition of PKK at 0.56 μM (human PKK mRNA [1]; Table 37): 57%; percent inhibition of PKK at 1.67 μM (human PKK mRNA [1]; Table 37): 75%; percent inhibition of PKK at 5.00 μM (human PKK mRNA [1]; Table 37): 89%; IC50 (human PKK mRNA [1]; [5]): 400 nM; percent inhibition of PKK mRNA, 5.00 μM (human PKK mRNA [1]): 95%; % inhibition (human PKK mRNA [2]; Table 13, human PKK mRNA in HepaRG cells, 5-10-5 gapmers): 88% |
| 546896 (eG*eT*eA*eT*e[5mC]*dA*d[5mC]*dT*dG*dT*d[5mC]*d[5mC]*dT*dA*dT*eG*eT*e[5mC]*eA*e[5mC]; antisense) [compound 546896] | 35 | 60 | 83 | 400 | 0 | 45 | 82 | 97 | 800 | – | – | – | – | – | % inhibition (human PKK mRNA [2]; [6]): 75% |
